# Data from publication PMC11585928, “Screening the Global Health Priority Box against Plasmodium berghei liver stage parasites using an inexpensive luciferase detection protocol” (Malaria Journal, 2024).
# Where two headings read alike, the source gives them in different places.
# Legend:
# [1] = test system: P. berghei liver schizonts; assay: GHPB single point primary screen, FLAR luciferase endpoint; type: cell-based, Plasmodium berghei; details: 1 µM; for activity and selectivity in the primary screens: hit = > 80% inhibition of P. berghei and < 15% inhibition of HepG2
# Procedure: The GHPB is an open-access collection of compounds (80 for vector control, 80 for zoonotic and neglected diseases, 80 for drug resistant malaria) obtained from MMV. The library was supplied in a 96-well microtitre plate and moved into a low-volume 384-well plate (Greiner Bio-One, cat 784,261) using a Biomek NXp to transfer 5 μL of 1 mM compound into the destination wells. MMV390048 (1 µM) was used for the positive control wells and DMSO (0.1% v/v) was used for the negative control wells. The GHPB was screened by seeding 5 × 10^3 cells/well which, after 24 h, were infected with a maximum available inoculum of 1.44 × 10^3 sporozoites/well. Three hours post-infection, plates were treated with a pin tool as described above. After 44 h, media was dumped from the plate, lysed using the freeze/thaw method, and luciferase signal was detected with 1 × FLAR as described above.
# [2] = test system: P. berghei liver schizonts; assay: GHPB dose-response confirmation, FLAR luciferase endpoint; type: cell-based, Plasmodium berghei; details: for Activity (grouping in dose-response confirmation runs): grouped as selectively active, active but with low selectivity, nonselective or inactive
# Procedure: A total of 35 compounds were identified for resupply of fresh powder for confirmation in dose–response assays. […] Powders were diluted to 50 mM in DMSO and plated in 1000 × source plates as described above. MMV390048 and puromycin were plated as the positive control for P. berghei liver schizont activity and cytotoxicity, respectively. Two independent experiments using 1 × FLAR and 5 × 10^3 cells/well were performed to assess the potency of these compounds against P. berghei liver schizonts, each with an independent production run of P. berghei sporozoites. […] Separately, two independent runs of the HepG2 cultured in galactose, assayed as described above, were used to assess the cytotoxicity potency and selectivity indices for these compounds. Both P. berghei liver schizont and HepG2 cytotoxicity data were loaded into CDD Vault for normalization, curve fitting, and EC50 calculations as described above. Receiver-operator characteristic (ROC) curves were generated using Graphpad Prism and area under the curve (AUC) was calculated using the Wilson/Brown method for both P. berghei liver schizont activity and HepG2 cytotoxicity.
# HepG2 cells = assay: HepG2 cytotoxicity assay in galactose media, 72 h, hepatic nuclei count by HCI; type: cell-based, Homo sapiens
# Procedure: To assess the general cytotoxicity of GHPB compounds, HepG2 cells were cultured in media containing galactose instead of glucose to avoid false negatives due to the Crabtree effect. Following propagation of HepG2 in T-75 flasks with glucose-containing media as above, media was aspirated, the cell monolayer was washed with PBS, and then cells were trypsinized as above. Released cells were then resuspended in media containing glucose-free DMEM (Gibco, cat 11,966–025) supplemented with 10% FBS (Corning, cat 35–016-CV), 10 mM galactose (Sigma, cat G5388), 1 mM sodium pyruvate (Corning, cat 25–000-CI), 1 × penicillin–streptomycin-neomycin mix (Gibco, cat 15,640–055), and 2 mM L-glutamine (Gibco, cat 25,030–081). The cell density was calculated using trypan blue exclusion on a haemocytometer, diluted to 50 cells/µL, and 40 µL of cells were seeded into collagen-coated 384-well plates (Greiner Bio-One, cat 781,956) using a Biomek NXp (Beckman Coulter), resulting in 2 × 10^3 cells/well. The day after seeding, plates were treated with a pin tool as above and cultured for 72 h. Plates were then fixed with 4% paraformaldehyde, stained with 10 µg/mL Hoechst 33,342, and imaged on an ImageXpress Micro Confocal. Hepatic nuclei were quantified using MetaXpress (Molecular Devices) image analysis software. Both P. berghei liver schizont and HepG2 cytotoxicity data were loaded into CDD Vault for normalization and hit selection as described above. A total of 35 compounds were identified for resupply of fresh powder for confirmation in dose–response assays. […] Powders were diluted to 50 mM in DMSO and plated in 1000 × source plates as described above. […] Separately, two independent runs of the HepG2 cultured in galactose, assayed as described above, were used to assess the cytotoxicity potency and selectivity indices for these compounds. […] Receiver-operator characteristic (ROC) curves were generated using Graphpad Prism and area under the curve (AUC) was calculated using the Wilson/Brown method for both P. berghei liver schizont activity and HepG2 cytotoxicity.
# [3] = test system: P. berghei liver schizonts; parameters: method as in PMID 30523084; details: read-out: EC50 against P. berghei liver schizonts (reported); cited from earlier work
SMILES,activity and selectivity in the primary screens [1],Activity (grouping in dose-response confirmation runs) [2],HepG2 Cytotoxicity (pEC50 ± SD) (HepG2 cells),EC50 [3] [nM],inhibition of P. berghei liver schizonts in the primary screen ([1]; 44 h) [%],"EC50 ([2]; dose-response confirmation, FLAR, read-out: EC50 against P. berghei liver schizonts) [nM]"
O=C(Nc1ncccc1O)c1ccc(N2CCOCC2)nc1 [MMV1103183],active and selective,active and selective,5.03 ± 0.02,–,–,–
CCOc1ccccc1NC(=O)Cn1c(=O)n(Cc2ccccc2)c(=O)c2c(C)c(C(=O)N(C)C)sc21 [MMV006430],–,–,4.94 ± 0.06,–,–,–
Cn1cc(CN2CCc3c(c(C(=O)NCc4nccs4)nn3Cc3ccccc3)C2)c2ccccc21 [MMV1167451],–,–,–,6300,–,–
CCCOc1ccc(C(F)(F)F)cc1NC(=O)c1nc2nccc(C)n2n1 [MMV1262756],–,–,–,105,–,–
Cn1ccnc1SCC(=O)Nc1ccc(C(=O)Nc2ncccc2O)cc1 [MMV1267536],not considered hits,active and selective,4.83 ± 0.26,–,69.1,127
